Results: patent US20250101001A1 (priority 2021, published 2025)

Legend:
5-HT2A [1] = target: T1, 5-HT2A (Homo sapiens, UniProt P28223); assay: Serotonin 5-HT2A in vitro radioligand binding competition assay ([3H]-DOI); set-up: purchased Epics Therapeutics S. A. (Belgium) FAST-0505B; details: [3H]-DOI competition, membrane extracts
Experimental: Serotonin 5-HT2A In Vitro Radioligand Binding Competition Assay. The 5-HT2A radioligand binding competition assay was performed at Epics Therapeutics S. A. (Belgium, FAST-0505B) using conventional methods. Briefly, competition binding was performed in duplicate in the wells of a 96 well plate (Master Block, Greiner, 786201) containing binding buffer (optimized for each receptor), membrane extracts (amount of protein/well optimized for each receptor), radiotracer [^3H]-DOI (final concentration optimized for each receptor) and test compound. Nonspecific binding was determined by co-incubation with 200-fold excess of cold competitor. The samples were incubated in a final volume of 0.1 ml at a temperature and for a duration optimized for each receptor and then filtered over filter plates. Filters were washed six times with 0.5 ml of ice-cold washing buffer (optimized for each receptor) and 50 μl of Microscint 20 (Packard) were added in each well. The plates were incubated 15 min on an orbital shaker and then counted with a TopCount™ for 1 min/well.

5-HT2A [2] = target: T1, 5-HT2A; assay: Serotonin 5-HT2A in vitro cellular IPOne agonism assay; type: cell-based; set-up: host or cells: CHO-K1; details: CHO-K1 cells, IPOne HTRF, agonist mode
Experimental: Serotonin 5-HT2A In Vitro Cellular IPOne Agonism Assay. The 5-HT2A IPOne HTRF assay was performed at Epics Therapeutics S.A. (Belgium, FAST-0505I) using conventional methods. Briefly, CHO-K1 cells expressing human recombinant 5-HT2A receptor grown to mid-log phase in culture media without antibiotics were detached with PBS-EDTA, centrifuged, and resuspended in medium without antibiotics buffer. 20,000 cells are distributed in a 96 well plate and incubated overnight at 37° C. with 5% Co2.
For agonist testing, the medium was removed and […] of assay buffer plus 20 μl of test compound or reference agonist were added in each well. The plate was incubated for 60 min. at 37° C. with 5% CO2.
(§1) After addition of the lysis buffer containing IP1-d2 and anti-IP1 cryptate detection reagents, plates were incubated 1-hour at room temperature, and fluorescence ratios were measured according to the manufacturer specification, with the HTRF kit.

5-HT2A [3] = target: T1, 5-HT2A; assay: Serotonin 5-HT2A in vitro cellular IPOne antagonism assay; type: cell-based; set-up: host or cells: CHO-K1; details: CHO-K1 cells, IPOne HTRF, reference agonist a-Me-5HT
Experimental: Serotonin 5-HT2A and 5-HT2C In Vitro Cellular IPOne Antagonism Assay. The 5-HT2A and 5-HT2C IPOne HTRF assay was performed at Epics Therapeutics S.A. (Belgium, FAST-0505I) in antagonism mode using conventional methods. Briefly, CHO-K1 cells expressing human recombinant 5-HT2A or 5-HT2C receptor grown to mid-log phase in culture media without antibiotics were detached with PBS-EDTA, centrifuged, and resuspended in medium without antibiotics buffer. 20,000 cells were distributed in a 96 well plate and incubated overnight at 37° C. with 5% C02.
For antagonist testing, a reference agonist a-Me-5HT was added and fluorescence signal monitored for several minutes, followed by addition of 20 μlof assay buffer plus 20 μl of test compound or reference antagonist ketanserin, in each well. The plate was incubated for 60 min. at 37° C. with 5% CO2.
as §1

T1 sequence (P28223 whole entry): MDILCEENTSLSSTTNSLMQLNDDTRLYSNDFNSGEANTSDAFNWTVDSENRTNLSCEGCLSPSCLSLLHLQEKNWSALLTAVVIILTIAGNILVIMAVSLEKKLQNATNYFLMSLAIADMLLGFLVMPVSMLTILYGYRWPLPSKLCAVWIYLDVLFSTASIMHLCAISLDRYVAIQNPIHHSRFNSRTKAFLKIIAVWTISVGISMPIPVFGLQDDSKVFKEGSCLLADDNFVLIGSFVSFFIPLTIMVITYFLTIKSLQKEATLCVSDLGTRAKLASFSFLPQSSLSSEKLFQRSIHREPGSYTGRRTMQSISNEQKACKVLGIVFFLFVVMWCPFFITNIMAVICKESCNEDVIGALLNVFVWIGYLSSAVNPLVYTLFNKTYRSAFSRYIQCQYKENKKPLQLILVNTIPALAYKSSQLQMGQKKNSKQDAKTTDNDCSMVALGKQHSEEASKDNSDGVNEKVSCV

Row | Structure (SMILES) | IC50 (5-HT2A [1]) [µM] | EC50 (5-HT2A [2]) [µM] | IC50 (5-HT2A [3]) [µM]
1 | Cc1cn(C2CNC2)c2ccc(F)cc12 [Compound 1, 1-(azetidin-3-yl)-5-fluoro-3-methyl-1H-indole] | 0.101 to 1 | > 10 | 1 to 10
2 | Fc1ccc2c(ccn2C2CNC2)c1F [Compound 2, 1-(azetidin-3-yl)-4,5-difluoro-1H-indole] | 0.101 to 1 | > 10 | 0.101 to 1
3 | Cc1cn(C2CCNCC2)c2ccc(F)cc12 [Compound 3, 5-fluoro-3-methyl-1-(piperidin-4-yl)-1H-indole] | 0.101 to 1 | > 10 | 0.101 to 1
4 | Fc1ccc2c(ccn2C2CCNCC2)c1F [Compound 4, 4,5-difluoro-1-(piperidin-4-yl)-1H-indole] | 0.101 to 1 | > 10 | 0.101 to 1
5 | Cc1cn(C2CN(C)C2)c2ccc(F)cc12 [Compound 5, 5-fluoro-3-methyl-1-(1-methylazetidin-3-yl)-1H-indole] | 0.101 to 1 | > 10 | 1 to 10
6 | CN1CC(n2ccc3c(F)c(F)ccc32)C1 [Compound 6, 4,5-Difluoro-1-(1-methylazetidin-3-yl)-1H-indole] | 0.101 to 1 | > 10 | 0.101 to 1
7 | Cc1cn(C2CCN(C)C2)c2ccc(F)cc12 (centres unmarked) [Compound 7, 5-Fluoro-3-methyl-1-(1-methylpyrrolidin-3-yl)-1H-indole] | 1 to 10 | > 10 | 1 to 10
8 | CN1CCC(n2ccc3c(F)c(F)ccc32)C1 (centres unmarked) [Compound 8, 4,5-difluoro-1-(1-methylpyrrolidin-3-yl)-1H-indole] | 0.101 to 1 | 0.101 to 1 | 0.101 to 1
9 | Cc1cn(C2CCN(C)CC2)c2ccc(F)cc12 [Compound 9, 5-fluoro-3-methyl-1-(1-methylpiperidin-4-yl)-1H-indole] | 0.101 to 1 | > 10 | 0.101 to 1
10 | CN1CCC(n2ccc3c(F)c(F)ccc32)CC1 [Compound 10, 4,5-difluoro-1-(1-methylpiperidin-4-yl)-1H-indole] | 0.101 to 1 | > 10 | 0.101 to 1
11 | CC(C)c1cn(C2CCN(C)C2)c2ccc(F)cc12 (centres unmarked) [Compound 11, 5-fluoro-3-isopropyl-1-(1-methylpyrrolidin-3-yl)-1H-indole] | 1 to 10 | > 10 | 0.101 to 1
12 | CN1CCC(n2cc(-c3ccccc3)c3cc(F)ccc32)C1 (centres unmarked) [Compound 12, 5-fluoro-1-(1-methylpyrrolidin-3-yl)-3-phenyl-1H-indole] | 0.01 to 0.1 | > 10 | 0.01 to 0.1
13 | Cc1cn(C2CCN(C)C2)c2ccc(OC3COC3)cc12 (centres unmarked) [Compound 13, 3-Methyl-1-(1-methylpyrrolidin-3-yl)-5-(oxetan-3-yloxy)-1H-indole] | > 10 | > 10 | –
14 | Cc1cn(C2CCNC2)c2ccc(F)cc12 (centres unmarked) [Compound 14, 5-fluoro-3-methyl-1-(pyrrolidin-3-yl)-1H-indole] | 0.101 to 1 | 0.101 to 1 | 0.101 to 1
15 | Fc1ccc2c(ccn2C2CCNC2)c1F (centres unmarked) [Compound 15, 4,5-Difluoro-1-(pyrrolidin-3-yl)-1H-indole] | 0.101 to 1 | 0.101 to 1 | 0.101 to 1
16 | CCN1CCC(n2cc(C)c3cc(F)ccc32)C1 (centres unmarked) [Compound 16, 1-(1-Ethylpyrrolidin-3-yl)-5-fluoro-3-methyl-1H-indole] | 1 to 10 | > 10 | –
17 | CCN1CCC(n2ccc3c(F)c(F)ccc32)C1 (centres unmarked) [Compound 17, 1-(1-ethylpyrrolidin-3-yl)-4,5-difluoro-1H-indole] | 1 to 10 | > 10 | 1 to 10
18 | Cc1cn(C2CCN(C(C)C)C2)c2ccc(F)cc12 (centres unmarked) [Compound 18, 5-fluoro-1-(1-isopropylpyrrolidin-3-yl)-3-methyl-1H-indole] | 1 to 10 | > 10 | –

Row | Structure (SMILES) | IC50 (5-HT2A [1]) [µM] | EC50 (5-HT2A [2]) [µM] | IC50 (5-HT2A [3]) [µM]
19 | CC(C)N1CCC(n2ccc3c(F)c(F)ccc32)C1 (centres unmarked) [Compound 19, 4,5-difluoro-1-(1-isopropylpyrrolidin-3-yl)-1H-indole] | 1 to 10 | > 10 | –
20 | Cc1cn(C2CCN(C3COC3)C2)c2ccc(F)cc12 (centres unmarked) [Compound 20, 5-fluoro-3-methyl-1-(1-(oxetan-3-yl)pyrrolidin-3-yl)-1H-indole] | > 10 | > 10 | –
21 | Fc1ccc2c(ccn2C2CCN(C3COC3)C2)c1F (centres unmarked) [Compound 21, 4,5-difluoro-1-(1-(oxetan-3-yl)pyrrolidin-3-yl)-1H-indole] | > 10 | > 10 | –
22 | COCCN1CCC(n2cc(C)c3cc(F)ccc32)C1 (centres unmarked) [Compound 22, 5-Fluoro-1-(1-(2-methoxyethyl)pyrrolidin-3-yl)-3-methyl-1H-indole] | 1 to 10 | > 10 | –
23 | COCCN1CCC(n2ccc3c(F)c(F)ccc32)C1 (centres unmarked) [Compound 23, 4,5-Difluoro-1-(1-(2-methoxyethyl)pyrrolidin-3-yl)-1H-indole] | 1 to 10 | > 10 | 1 to 10
24 | Clc1ccc2c(ccn2C2CNC2)c1 [Compound 24, 1-(azetidin-3-yl)-5-chloro-1H-indole] | 1 to 10 | > 10 | 0.101 to 1
25 | N#Cc1ccc2c(ccn2C2CNC2)c1 [Compound 25, 1-(azetidin-3-yl)-1H-indole-5-carbonitrile] | > 10 | > 10 | > 10
26 | Fc1cccc2ccn(C3CNC3)c12 [Compound 26, 1-(azetidin-3-yl)-7-fluoro-1H-indole] | 1 to 10 | 1 to 10 | 1 to 10
27 | Fc1ccc2c(ccn2C2CNC2)c1 [Compound 27, 1-(azetidin-3-yl)-5-fluoro-1H-indole] | 0.101 to 1 | > 10 | 0.101 to 1
28 | Fc1ccc2ccn(C3CNC3)c2c1 [Compound 28, 1-(azetidin-3-yl)-6-fluoro-1H-indole] | 0.101 to 1 | > 10 | 0.101 to 1
29 | COc1ccc2c(ccn2C2CNC2)c1 [Compound 29, 1-(azetidin-3-yl)-5-methoxy-1H-indole] | > 10 | > 10 | > 10
30 | CN1CC(n2ccc3cc(F)ccc32)C1 [Compound 30, 5-fluoro-1-(1-methylazetidin-3-yl)-1H-indole] | 0.101 to 1 | > 10 | 0.101 to 1
31 | COc1ccc2c(ccn2C2CN(C)C2)c1 [Compound 31, 5-methoxy-1-(1-methylazetidin-3-yl)-1H-indole] | > 10 | > 10 | > 10
32 | CN1CC(n2ccc3c(F)cccc32)C1 [Compound 32, 4-fluoro-1-(1-methylazetidin-3-yl)-1H-indole] | 0.101 to 1 | > 10 | 0.101 to 1
33 | CN1CC(n2ccc3ccc(F)cc32)C1 [Compound 33, 6-fluoro-1-(1-methylazetidin-3-yl)-1H-indole] | 0.101 to 1 | > 10 | 0.101 to 1
34 | CN1CC(n2ccc3cccc(F)c32)C1 [Compound 34, 7-fluoro-1-(1-methylazetidin-3-yl)-1H-indole] | 0.101 to 1 | > 10 | 1 to 10
35 | Cc1ccc2c(ccn2C2CN(C)C2)c1 [Compound 35, 5-methyl-1-(1-methylazetidin-3-yl)-1H-indole] | 1 to 10 | > 10 | 1 to 10
